# Laboratory results reported in patent US20260232666A1, “COMPOSITIONS AND METHODS FOR INHIBITION OF RAS” (TheRas, Inc., priority 2023, published 2026).
# Tests used:
# [1] = biological target: T1, GTP-loaded KRAS4b (amino acids 1-169) G12C/C118S protein (Homo sapiens, UniProt P01116, C118S/G12C); test: Covalent cysteine 12 modification by MALDI-TOF MS, GTP-loaded KRAS G12C; type: binding; conditions: 15 minutes reaction time point
# T1 construct: KRAS4b (amino acids 1-169) G12C/C118S protein; made in house
# In short: (§1)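 Protein (1 μM) was incubated with compound at a 1:2.5 protein:compound ratio in 20 mM HEPES, 150 mM NaCl, 1 mM MgCl2, pH 7.3, at room temperature in the dark. After 15 min, samples were mixed into sinapinic acid matrix and analysed by linear-mode MALDI-TOF. Modification is adduct peak height over summed unmodified plus adduct heights.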
# [2] = biological target: T2, Avi-KRAS G12C (1-169) GppNHp/RAF1 RBD-3×FLAG (52-151) (Homo sapiens, UniProt P01116, G12C); test: Raf1 RBD-KRAS G12C-GppNHp disruption assay (protein:protein interaction HTRF); type: biochemical
# T2 construct: Avi-KRAS G12C (1-169) GppNHp; Avi (N)
# Experimental: Biological Example 2: Disrupting KRAS G12C-Effector Binding (Protein: Protein Interaction HTRF Assay)
# A protein: protein interaction (PPI) Homogeneous Time Resolved Fluorescence (HTRF) assay was used to determine the effectiveness of compounds of the present disclosure in disrupting KRAS G12C protein and effector (RAF1 Ras Binding Domain (RBD)) binding.
# The HTRF assay used the following reagents and proteins: 50 nM Avi-KRAS G12C (1-169) GppNHp/RAF1 RBD-3×FLAG (52-151); 35 nM Avi-PI3K RBD-3×FLAG; Assay Buffer: 50 mM Tris pH 7.5, 100 mM NaCl, 5 mM MgCl2, 0.1% BSA, 0.01% Tween 20, 10% DMSO; Bead Buffer: 50 mM Tris pH 7.5, 0.01% Tween 20; Assay volume: 20 μL (384 well plate-low volume format); and Compound titration: 30-0.02 μM, 3× dilution series.
# The HTRF assay employed the following protocol:
# Compounds were dispensed in assay plate (384-well, Grenier Bio-One #784075) using Echo (model 555) with dose response settings: 200 nL final volume, titration from 100 μM as a 10-point dilution series. KRAS proteins were prepared in assay buffer, and dispensed on plates, 5 μL per well, then incubated for 1 h at room temperature, with 700 rpm shaking. RAF1 RBD were prepared in assay buffer, dispensed onto plates, 5 μL per well, and then incubated for 1 h at room temperature, with 700 rpm shaking. Reagent mix was then prepared and dispensed on plates, 10 μL per well, and then incubated for 1 h at room temperature, with 700 rpm shaking.
# Plates were analyzed on an Envision plate reader using the following setting: Excitation 320 nm, Bandwidth 75 nm; Emission 615 nm, Bandwidth 85 nm; Gain 100%; Flashes 100; Lag 60 μs. Data was reported as percentage of activity, with DMSO as 100%. Data was plotted and analyzed using Prism 8.
# The percent of modification of GppNHp, GTP, or GDP loaded KRAS G12C by MALDI-TOF MS, biochemical Raf1 RBD-KRAS G12C-GppNHp disruption assay IC50, and pERK inhibition IC50 of selected compounds described herein are shown in Table 4. For percent of modification at 15 minutes (MALDI-TOF MS) of GppNHp, GTP, or GDP loaded KRAS G12C: A: percent of modification ≥70%; B: 50≤percent of modification <70%; C: 10%≤percent of modification <50%; D: percent of modification <10%. […] For pERK inhibition in H358 cell assay: A: IC50≤0.1 μM; B: 0.1 μM<IC50≤1 μM; C: IC50>1 μM. Blanks in the table represent that compound was not tested in the indicated assay.
# [3] = biological target: T3, GDP-loaded KRAS4b (amino acids 1-169) G12C/C118S protein (Homo sapiens, UniProt P01116, C118S/G12C); test: Covalent cysteine 12 modification by MALDI-TOF MS, GDP-loaded KRAS G12C; type: binding; conditions: 15 minutes reaction time point
# T3 construct: KRAS4b (amino acids 1-169) G12C/C118S protein; made in house
# In short: as §1
Structure (SMILES),GTP-KRAS G12C percent of modification [1],IC50 [2] [nM],GDP-KRAS G12C percent of modification [3]
C=CC(=O)N1C2CCC1CN(c1nc(OC[C@@]34CCCN3C[C@H](F)C4)nc3c(F)c(-c4ccc(F)c5sc(N)c(C#N)c45)c(C(F)(F)F)cc13)C2 [Compound 34],D (percent of modification <10%),< 500,B (50≤percent of modification <70%)
"C=CC(=O)N1CC[C@@H](N(C)c2nc(OC[C@@H]3CC4(CC4)CN3C)nc3c(F)c(-c4ccc(F)c5sc(N)c(C#N)c45)c(C(F)(F)F)cc23)[C@@H]1C (atropisomer, axis not shown) [Compound 111]",A (percent of modification ≥70%),< 500,A (percent of modification ≥70%)
C=CC(=O)N1CC[C@@H](N(CC)c2nc(OC[C@]34CCCN3C[C@H](F)C4)nc3c(F)c(-c4ccc(F)c5sc(N)c(C#N)c45)c(Cl)cc23)[C@H]1C [Compound 165],A (percent of modification ≥70%),< 500,A (percent of modification ≥70%)
C=CC(=O)N1CC[C@@H](N(C)c2nc(OC[C@]34CCCN3C[C@H](OC)C4)nc3c(F)c(-c4ccc(F)c5sc(N)c(C#N)c45)c(Cl)cc23)[C@H]1C [Compound 161],A (percent of modification ≥70%),< 500,A (percent of modification ≥70%)
"C=CC(=O)N1CC[C@@H](N(C)c2nc(OC[C@H]3C[C@@H](OC)CN3C)nc3c(F)c(-c4ccc(F)c5sc(N)c(C#N)c45)c(C(F)(F)F)cc23)[C@H]1C (single isomer, unassigned) [Compound 173]",A (percent of modification ≥70%),< 500,A (percent of modification ≥70%)
C=CC(=O)N1CC[C@@H](N(C)c2nc(OC[C@@]34CCCN3C[C@H](OC)C4)nc3c(F)c(-c4ccc(F)c5sc(N)c(C#N)c45)c(C(F)(F)F)cc23)[C@H]1C [Compound 151],A (percent of modification ≥70%),< 500,
C=CC(=O)N1CC[C@@H](N(C)c2nc(OC[C@@]34CCCN3C[C@H](F)C4)nc3cc(-c4ccc(F)c5sc(N)c(C#N)c45)c(C#N)cc23)[C@@H]1C [Compound 27],B (50≤percent of modification <70%),< 500,A (percent of modification ≥70%)
"C=CC(=O)N1CC[C@@H](N(C)c2nc(OC[C@@H]3C[C@@H](OC)CN3C)nc3c(F)c(-c4ccc(F)c5sc(N)c(C#N)c45)c(C(F)(F)F)cc23)[C@H]1C (single isomer, unassigned) [Compound 172]",A (percent of modification ≥70%),< 500,A (percent of modification ≥70%)
C=CC(=O)N1CC[C@@H](N(CC)c2nc(OC[C@]34CCCN3C[C@H](OC)C4)nc3c(F)c(-c4ccc(F)c5sc(N)c(C#N)c45)ccc23)[C@H]1C [Compound 169],A (percent of modification ≥70%),< 500,A (percent of modification ≥70%)
C=CC(=O)N1CC[C@@H](N(CC)c2nc(OC[C@@]34CCCN3C[C@H](F)C4)nc3c(F)c(-c4ccc(F)c5sc(N)c(C#N)c45)c(Cl)cc23)[C@H]1CC [Compound 20],C (10%≤percent of modification <50%),< 500,C (10%≤percent of modification <50%)
C=CC(=O)N1CCN(c2nc(OC[C@@]34CCCN3C[C@H](F)C4)nc3c(F)c(-c4ccc(F)c5sc(N)c(C#N)c45)c(C(F)(F)F)cc23)C2CC21 (some centres unmarked) [Compound 106],C (10%≤percent of modification <50%),< 500,A (percent of modification ≥70%)
C=CC(=O)N1CC[C@@H](N(C)c2nc(OC[C@@]34CCCN3C[C@H](F)C4)nc3c(F)c(-c4ccc(F)c5sc(N)c(C#N)c45)ccc23)[C@@H]1CC [Compound 23],C (10%≤percent of modification <50%),< 500,A (percent of modification ≥70%)
C=CC(=O)N1C[C@@H](C)N(c2nc(OC[C@@]34CCCN3C[C@H](F)C4)nc3c(F)c(-c4ccc(F)c5sc(N)c(C#N)c45)c(C(F)(F)F)cc23)C[C@@H]1C [Compound 124],,< 500,B (50≤percent of modification <70%)
C=CC(=O)N1CC[C@@H](N(C)c2nc(OC[C@@H]3C[C@@H](F)CN3C)nc3c(F)c(-c4ccc(F)c5sc(N)c(C#N)c45)c(C(F)(F)F)cc23)[C@@H]1C [Compound 32],C (10%≤percent of modification <50%),< 500,
C=CC(=O)N1CC[C@@H](N(C)c2nc(OC[C@@H]3CCCN3CC)nc3c(F)c(-c4ccc(F)c5sc(N)c(C#N)c45)c(C(F)(F)F)cc23)[C@@H]1C [Compound 30],B (50≤percent of modification <70%),< 500,

# Continued, values first:
GTP-KRAS G12C percent of modification [1],IC50 [2] [nM],GDP-KRAS G12C percent of modification [3],Structure (SMILES)
C (10%≤percent of modification <50%),< 500,C (10%≤percent of modification <50%),C=CC(=O)N1CC[C@@H](N(C)c2nc(OC[C@@H]3C[C@@H](F)CN3CC)nc3c(F)c(-c4ccc(F)c5sc(N)c(C#N)c45)c(C(F)(F)F)cc23)[C@@H]1C [Compound 144]
A (percent of modification ≥70%),< 500,A (percent of modification ≥70%),"C=CC(=O)N1C[C@H](C)N(c2nc(OC[C@@]34CCCN3C[C@H](F)C4)nc3c(F)c(-c4ccc(F)c5sc(N)c(C#N)c45)c(Cl)cc23)C[C@H]1C (atropisomer, axis not shown) [Compound 102]"
B (50≤percent of modification <70%),< 500,A (percent of modification ≥70%),C=CC(=O)N1CC[C@@H](N(CC)c2nc(OC[C@]34CCCN3C[C@H](F)C4)nc3c(F)c(-c4ccc(F)c5sc(N)c(C#N)c45)c(C(F)(F)F)cc23)[C@H]1C [Compound 159]
A (percent of modification ≥70%),< 500,A (percent of modification ≥70%),C=CC(=O)N1CC[C@@H](N(C)c2nc(OC[C@]34CCCN3C[C@H](OC)C4)nc3c(F)c(-c4ccc(F)c5sc(N)c(C#N)c45)c(C(F)(F)F)cc23)[C@H]1C [Compound 156]
A (percent of modification ≥70%),< 500,A (percent of modification ≥70%),C=CC(=O)N1C[C@H](N(C)c2nc(OC[C@@H]3CCCN3C)nc3c(F)c(-c4ccc(F)c5sc(N)c(C#N)c45)c(C(F)(F)F)cc23)C[C@H]1C [Compound 147]
B (50≤percent of modification <70%),< 500,A (percent of modification ≥70%),C=CC(=O)N1CC[C@@H](N(CC)c2nc(OC[C@]34CCCN3C[C@H](OC)C4)nc3c(F)c(-c4ccc(F)c5sc(N)c(C#N)c45)c(C(F)(F)F)cc23)[C@H]1C [Compound 158]
A (percent of modification ≥70%),< 500,A (percent of modification ≥70%),C=CC(=O)N1CC[C@@H](N(CC)c2nc(OC[C@@H]3C[C@@H](F)CN3C)nc3c(F)c(-c4ccc(F)c5sc(N)c(C#N)c45)ccc23)[C@H]1C [Compound 142]
